Values quoted from earlier work, collected in patent US8952066B2, “Pharmaceutical/cosmetic, E.G., anti-acne compositions comprising at least one naphthoic acid compound, benzoyl peroxide and at least one film-forming agent” (Galderma Research & Development, priority 2007, dated 2015).
Where two headings read alike, the source gives them in different places.

Assays:
[1] = in presence of the benzoyl peroxide-based formulation
[2] = 40° C.

COc1ccc(-c2ccc3cc(C(=O)O)ccc3c2)cc1C12CC3CC(CC(C3)C1)C2 [adapalene, 6-[3-(1-adamantyl)-4-methoxyphenyl]-2-naphthoic acid]
Degradation of the retinoid (in words) ([1]; for 24 hours): no degradation

O=C(OOC(=O)c1ccccc1)c1ccccc1 [benzoyl peroxide]
Degradation time ([2]; in PEG 400 (0.5 mg/g)): 1.4 days | Degradation time ([2]; in ethanol): 29 days | Degradation time ([2]; in propylene glycol): 53 days

CC1=C(/C=C/C(C)=C/C=C/C(C)=C/C(=O)O)C(C)(C)CCC1 [tretinoin]
Degradation of the retinoid ([1]; in 2 hours): 50% | Degradation of the retinoid ([1]; in 24 hours): 95%
